Source: patent US8426422B2, “Apoptosis-inducing agents for the treatment of cancer and immune and autoimmune diseases” (Abbvie Inc., priority 2009, dated 2013)

Target: GST-Bcl-2 (Homo sapiens, UniProt P10415)
Assay: Time Resolved-Fluorescence Resonance Energy Transfer (TR-FRET) Bcl-2 binding assay
Details: GST-Bcl-2 1 nM, F-Bak peptide probe 100 nM, Tb-anti-GST 1 nM; 3 hours at room temperature; Ki by Wang's equation
Experimental: Determination of the utility of compounds having Formula (I) as binders to and inhibitors of anti-apoptotic Bcl-2 proteins was performed using the Time Resolved-Fluorescence Resonance Energy Transfer (TR-FRET) Assay. Tb-anti-GST antibody was purchased from Invitrogen (Catalog No. PV4216).
Representative compounds were serially diluted in dimethyl sulfoxide (DMSO) starting at 50 μM (2x starting concentration; 10% DMSO) and 10 μL were transferred into a 384-well plate. The samples are then mixed on a shaker for 1 minute and incubated for an additional 3 hours at room temperature. For each assay, the probe/antibody and protein/probe/antibody were included on each assay plate as negative and positive controls, respectively. Fluorescence was measured on the ENVISION plate reader (Perkin Elmer) using a 340/35 nm excitation filter and 520/525 (F-Bak peptide) and 495/510 nm (Tb-labeled […] antibody) emission filters. Inhibition constants (Ki) are shown in TABLE 2 below and were determined using Wang's equation (Wang Z.-X. An Exact Mathematical Expression For Describing Competitive Binding Of Two Different Ligands To A Protein Molecule. FEBS Lett. 1995, 360:111-4).
The inhibition constant (Ki) is the dissociation constant of an enzyme-inhibitor complex or a protein/small molecule complex, wherein the small molecule is inhibiting binding of one protein to another protein. So a large Ki value indicates a low binding affinity and a small Ki value indicates a high binding affinity.
The compounds are therefore expected to have utility in treatment of diseases during which anti-apoptotic Bcl-2 protein is expressed.

GST-Bcl-2, sequence (P10415 whole entry): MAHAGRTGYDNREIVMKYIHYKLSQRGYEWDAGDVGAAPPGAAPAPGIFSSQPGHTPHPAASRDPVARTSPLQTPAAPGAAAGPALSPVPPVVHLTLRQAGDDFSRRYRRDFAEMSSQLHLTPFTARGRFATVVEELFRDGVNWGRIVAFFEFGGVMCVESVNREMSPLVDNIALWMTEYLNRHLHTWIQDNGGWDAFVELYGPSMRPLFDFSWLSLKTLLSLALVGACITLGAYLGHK

First: O=C(NS(=O)(=O)c1cccc([N+](=O)[O-])c1)c1ccc(N2CCN(Cc3ccccc3-c3ccc(Cl)cc3)CC2)cc1OCCc1ccccc1 [Example 8, 4-{4-[(4′-chloro-1,1′-biphenyl-2-yl)methyl]piperazin-1-yl}-N-[(3-nitrophenyl)sulfonyl]-2-(2-phenylethoxy)benzamide]
Second: O=C(NS(=O)(=O)c1cccc([N+](=O)[O-])c1)c1ccc(N2CCN(Cc3ccccc3-c3ccc(Cl)cc3)CC2)cc1Cc1ccccc1 [Example 15, 2-benzyl-4-{4-[(4′-chloro-1,1′-biphenyl-2-yl)methyl]piperazin-1-yl}-N-[(3-nitrophenyl)sulfonyl]benzamide]
The Ki of the first is 20-fold higher: 975 nM for the first, 48 nM for the second. The second binds more tightly here.

Going from `CC1(C)CCC(CN2CCN(c3ccc(C(=O)NS(=O)(=O)c4cccc([N+](=O)[O-])c4)c(Oc4ccc5[nH]ccc5c4)c3)CC2)=C(c2ccc(Cl)cc2)C1` [Example 30, 4-(4-{[2-(4-chlorophenyl)-4,4-dimethylcyclohex-1-en-1-yl]methyl}piperazin-1-yl)-2-(1H-indol-5-yloxy)-N-[(3-nitrophenyl)sulfonyl]benzamide] to `CC1(C)CCC(CN2CCN(c3ccc(C(=O)NS(=O)(=O)c4ccc5ccccc5c4)c(Oc4ccc5[nH]ccc5c4)c3)CC2)=C(c2ccc(Cl)cc2)C1` [Example 36, 4-(4-{[2-(4-chlorophenyl)-4,4-dimethylcyclohex-1-en-1-yl]methyl}piperazin-1-yl)-2-(1H-indol-5-yloxy)-N-(2-naphthylsulfonyl)benzamide], the Ki rises from 0.209 nM to 31.7 nM (150-fold).

Compared with `O=C(NS(=O)(=O)c1ccc(Cl)c([N+](=O)[O-])c1)c1ccc(N2CCN(Cc3ccccc3-c3ccc(Cl)cc3)CC2)cc1Oc1ccccc1` [Example 27, 4-{4-[(4′-chloro-1,1′-biphenyl-2-yl)methyl]piperazin-1-yl}-N-[(4-chloro-3-nitrophenyl)sulfonyl]-2-phenoxybenzamide], `O=C(NS(=O)(=O)c1cccc(F)c1)c1ccc(N2CCN(Cc3ccccc3-c3ccc(Cl)cc3)CC2)cc1Oc1ccccc1` [Example 23, 4-{4-[(4′-chloro-1,1′-biphenyl-2-yl)methyl]piperazin-1-yl}-N-[(3-fluorophenyl)sulfonyl]-2-phenoxybenzamide] is 6.6-fold higher in Ki: 4.16 nM for the first, 27.3 nM for the second.

First: O=C(NS(=O)(=O)c1cccc([N+](=O)[O-])c1)c1ccc(N2CCN(Cc3ccccc3-c3ccc(Cl)cc3)CC2)cc1S(=O)(=O)c1ccccc1 [Example 26, 4-{4-[(4′-chloro-1,1′-biphenyl-2-yl)methyl]piperazin-1-yl}-N-[(3-nitrophenyl)sulfonyl]-2-(phenylsulfonyl)benzamide]
Second: O=C(NS(=O)(=O)c1ccc([N+](=O)[O-])cc1)c1ccc(N2CCN(Cc3ccccc3-c3ccc(Cl)cc3)CC2)cc1 [Example 16, 4-{4-[(4′-chloro-1,1′-biphenyl-2-yl)methyl]piperazin-1-yl}-N-[(4-nitrophenyl)sulfonyl]benzamide]
The Ki of the first is 2.3-fold higher: 627 nM for the first, 273 nM for the second.

Work on `O=C(NS(=O)(=O)c1cccc(F)c1)c1ccc(N2CCN(Cc3ccccc3-c3ccc(Cl)cc3)CC2)cc1` [Example 20, 4-{4-[(4′-chloro-1,1′-biphenyl-2-yl)methyl]piperazin-1-yl}-N-[(3-fluorophenyl)sulfonyl]benzamide] yielded a Ki of 280 nM.
